Measurements from patent US11078213B2, “Thienopyrimidine compound, preparation method thereof, pharmaceutical composition and application thereof” (HONGYUN BIOTECH CO., LTD., priority 2016, dated 2021).

Key:
[1] = molecular target: T1, EML4-ALK-BaF3 (Homo sapiens, UniProt Q9UM73); test: Growth inhibition of BaF3 cells stably transfected with kinase EML4-ALK (MTS); type: cell-based; details: compound concentration 3.3 μM, read-out: cell growth inhibition rate, EML4-ALK
T1 construct: EML4 (echinoderm microtubule associated protein like 4, Q9HC35) fusion partner; expressed in transfected cells; host or cells: BaF3; the other entry of the earlier key: EML4 (Q9HC35, Echinoderm microtubule-associated protein-like 4)
Description: (§1) The specific test method is given as follows:
(§2) 2) Reagent: MTS reaction solution (containing 2 mg/mL of MTS [3-(4,5-dimethylthiazol-2-yl)-5-(3-carboxymethoxyphenyl)-2-(4-sulfophenyl)-2H-tetra zolium, inner Salt]; 100 µg/mL PES ([…])).

[2] = molecular target: T2, NPM-ALK-BaF3 (Homo sapiens, UniProt Q9UM73); test: Growth inhibition of BaF3 cells stably transfected with kinase NPM-ALK (MTS); type: cell-based; details: compound concentration 3.3 μM, read-out: cell growth inhibition rate, NPM-ALK
T2 construct: NPM (nuclear phosphoprotein / nucleophosmin, NPM1, P06748) fusion partner; expressed in transfected cells; host or cells: BaF3; the other entry of the earlier key: NPM1 (P06748, Nucleophosmin)
Description: as §1, §2

[3] = molecular target: EML4-ALK-G1202R BaF3 cells (Homo sapiens, UniProt Q9UM73, G1202R); test: Growth inhibition of BaF3 cells stably transfected with ALK point mutation G1202R; details: read-out: Growth inhibitory activity IC50, EML4-ALK-G1202R
Description: (§6) The cell plate with uniformly mixed compound was cultured in a cell culture incubator (37° C.; 5% CO2) for 48 h, then 20 μL of MTS reaction solution was added, uniformly mixed and incubated in the cell culture incubator (37° C.; 5% CO2) for 1-4 hr; OD values at 490 nm were measured by a microplate reader (VARIOSKAN FLASH, Thermo). Three parallels were set in each group of experiments, with 0.1% (a final concentration) DMSO as a negative control, and a medium without cells or compounds as a blank control.
(§7) 4) IC50 calculation: The semi-inhibitory concentration of the compound acting on cell growth was calculated using GradPad Prism 5 software according to the measured cell growth inhibition rate.

[4] = molecular target: T3, EML4-ALK(G1202R)-Ba/F3 xenograft (Homo sapiens, UniProt Q9UM73, G1202R); test: Nude mouse xenograft model of EML4-ALK(G1202R)-Ba/F3; type: in vivo, BALB/c (nu/nu) nude mice; details: 10 consecutive days
T3 construct: EML4 (Q9HC35) fusion partner; expressed in transfected cells; host or cells: Ba/F3; the other entry of the earlier key: EML4 (Q9HC35, Echinoderm microtubule-associated protein-like 4)
Description: (§3) In this test, BALB/c (nu/nu) nude mice were used, male and female in half, 4-6 weeks old, weighing about 18±2 g, and fed in SPF level environment, strictly sterile operation. The animals to be tested were adapted to the experimental environment 1 week in advance, free access to food and water, and maintained a 12-hour circadian rhythm.
The EML4-ALK(G1202R)-Ba/F3 cells used in the test were cultured with 10% fetal bovine serum in PRMI-1640 medium, and placed in a 37° C., 5% CO2 incubator environment.
A subcutaneous transplantation model of tumor nude mice was established by using cell inoculation method: cells in logarithmic growth phase were collected by filtration, washed with PBS after centrifugation, and resuspended as a single cell suspension with PRMI-1640 medium, 1×10^6 cells/200 μL per nude mouse. The cell suspension was injected subcutaneously in the vicinity of right anterior axillary of a nude mouse using a 1 mL syringe (No. 4.5 needle). When the tumor of tumor-bearing mice grew to a measurable size, the tumor volume was measured daily. When the tumor volume reached about 150 mm^3, the mice were randomly divided into 3 groups, 8 mice each group, and administration was started on the day of grouping. The administration component was IB-1 60 mg/kg (once/day), 40 mg/kg (twice/day, bid), orally administered for 10 consecutive days, and negative control group was administered an equal amount of solvent. Animal weight and tumor size were measured daily during the test. The state of the mice was recorded daily. After the last administration, the mice were anesthetized with 5% chloral hydrate and killed 6 hours. The tumors were taken, weighed and photographed for recording. Tumor Volume (TV) was calculated as: TV=½×a×b^2, where a, b represent long diameter and short diameter of tumor, respectively.

[5] = system: NCI-H3122 xenograft; test: Nude mouse xenograft model of non-small cell lung cancer H3122 cells; type: in vivo, BALB/c (nu/nu) nude mice; details: 18 consecutive days
Description: as §3
The NCI-H3122 cells used in the test were cultured with 10% fetal bovine serum in PRMI-1640 medium, and placed in a 37° C., 5% CO2 incubator environment.
A subcutaneous transplantation model of tumor nude mice was established by using cell inoculation method: cells in logarithmic growth phase were collected by filtration, washed with PBS after centrifugation, and resuspended as a single cell suspension with PRMI-1640 medium, 5×10^6 cells/200 μL per nude mouse. The cell suspension was injected subcutaneously in the vicinity of right anterior axillary of a nude mouse using a 1 mL syringe (No. 4.5 needle). When the tumor of tumor-bearing mice grew to a measurable size, the tumor volume was measured daily. When the tumor volume reached about 150 mm^3, the mice were randomly divided into 4 groups, 5 mice each group, and administration was started on the day of grouping. […] The administration was conducted for 18 consecutive days. Animal weight and tumor size were measured every other day during the test. The state of the mice was recorded daily. After the last administration, the mice were anesthetized with 5% chloral hydrate and killed 6 hours. The tumors were taken, weighed and photographed for recording. Tumor Volume (TV) was calculated as: TV=½×a×b^2, where a, b represent long diameter and short diameter of tumor, respectively.

[6] = molecular target: EML4-ALK-G1269A BaF3 cells (Homo sapiens, UniProt Q9UM73, G1269A); test: Growth inhibition of BaF3 cells stably transfected with ALK point mutation G1269A; details: read-out: Growth inhibitory activity IC50, EML4-ALK-G1269A
Description: as §6, §7

[7] = molecular target: EML4-ALK-I1171T BaF3 cells (Homo sapiens, UniProt Q9UM73, I1171T); test: Growth inhibition of BaF3 cells stably transfected with ALK point mutation I1171T; details: read-out: Growth inhibitory activity IC50, EML4-ALK-I1171T
Description: as §6, §7

[8] = molecular target: EML4-ALK-S1206Y BaF3 cells (Homo sapiens, UniProt Q9UM73, S1206Y); test: Growth inhibition of BaF3 cells stably transfected with ALK point mutation S1206Y; details: read-out: Growth inhibitory activity IC50, EML4-ALK-S1206Y
Description: as §6, §7

[9] = system: anaplastic large cell lymphoma Karpas-299; test: Growth inhibitory activity on tumor cells Karpas-299; type: cell-based; details: for IC50: Homo sapiens, Karpas-299 tumor cells
Description: (§4) If the tumor cells tested were suspension cells, the assay was carried out in accordance with the method (1) above.
(§5) If the tumor cells tested were adherent cells, cells were incubated 1000-10000 cells/well in a 96-well culture plate until adherent, and then compounds were added. Others were carried out in accordance with the method (1) above.

[10] = system: wild-type BaF3; test: Growth inhibition of wild-type BaF3 cells (broad-spectrum toxicity); type: cell-based; details: Mus musculus, read-out: Growth inhibitory activity IC50, BaF3
Description: as §6, §7

[11] = system: kinase ALK-positive lung cancer cell line H3122; test: Growth inhibitory activity on tumor cells H3122; type: cell-based
Description: as §4, §5

T3 sequence (Q9UM73 1058-1620 G1202R limits assumed): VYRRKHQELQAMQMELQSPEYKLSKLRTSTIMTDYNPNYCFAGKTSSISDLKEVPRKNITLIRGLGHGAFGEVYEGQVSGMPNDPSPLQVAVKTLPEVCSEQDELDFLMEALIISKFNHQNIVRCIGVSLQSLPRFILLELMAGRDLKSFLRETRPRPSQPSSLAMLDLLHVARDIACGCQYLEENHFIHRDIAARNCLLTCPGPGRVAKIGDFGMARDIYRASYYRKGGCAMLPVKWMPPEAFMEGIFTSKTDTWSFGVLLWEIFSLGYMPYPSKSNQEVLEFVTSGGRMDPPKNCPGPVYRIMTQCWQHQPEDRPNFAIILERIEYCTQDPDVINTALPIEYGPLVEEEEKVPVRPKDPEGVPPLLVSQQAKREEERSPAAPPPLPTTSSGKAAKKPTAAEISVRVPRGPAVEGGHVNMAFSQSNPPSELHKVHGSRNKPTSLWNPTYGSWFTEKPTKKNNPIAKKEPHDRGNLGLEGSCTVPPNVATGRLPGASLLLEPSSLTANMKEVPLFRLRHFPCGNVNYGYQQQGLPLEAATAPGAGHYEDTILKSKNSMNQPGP
Sequence of EML4-ALK-G1269A BaF3 cells (Q9UM73 1058-1620 G1269A limits assumed): as the sequence (Q9UM73 1058-1620 G1202R limits assumed) above, with R145G, G212A counted along it
Sequence of EML4-ALK-I1171T BaF3 cells (Q9UM73 1058-1620 I1171T limits assumed): as the sequence (Q9UM73 1058-1620 G1202R limits assumed) above, with I114T, R145G counted along it
T2 sequence (Q9UM73 with tags, fused parts or gaps): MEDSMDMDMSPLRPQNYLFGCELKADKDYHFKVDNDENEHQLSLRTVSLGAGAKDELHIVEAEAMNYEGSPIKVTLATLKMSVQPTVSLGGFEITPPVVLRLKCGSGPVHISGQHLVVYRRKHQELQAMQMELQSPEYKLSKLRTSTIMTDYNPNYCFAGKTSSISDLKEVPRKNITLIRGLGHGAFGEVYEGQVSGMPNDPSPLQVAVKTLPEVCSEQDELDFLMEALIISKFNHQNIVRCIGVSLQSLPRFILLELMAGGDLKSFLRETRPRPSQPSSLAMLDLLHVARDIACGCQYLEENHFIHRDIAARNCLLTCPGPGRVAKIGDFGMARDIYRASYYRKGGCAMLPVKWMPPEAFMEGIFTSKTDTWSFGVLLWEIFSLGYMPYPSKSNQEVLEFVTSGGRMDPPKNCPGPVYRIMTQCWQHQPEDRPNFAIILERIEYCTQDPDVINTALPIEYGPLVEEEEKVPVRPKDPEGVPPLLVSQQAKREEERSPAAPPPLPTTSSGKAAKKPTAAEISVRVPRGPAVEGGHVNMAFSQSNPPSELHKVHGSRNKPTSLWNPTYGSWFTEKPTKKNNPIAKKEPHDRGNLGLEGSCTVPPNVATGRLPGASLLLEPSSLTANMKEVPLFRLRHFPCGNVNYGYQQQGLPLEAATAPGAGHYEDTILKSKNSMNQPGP
Sequence of EML4-ALK-S1206Y BaF3 cells (Q9UM73 1058-1620 S1206Y limits assumed): as the sequence (Q9UM73 1058-1620 G1202R limits assumed) above, with R145G, S149Y counted along it
T1 sequence (Q9UM73 1058-1620 limits assumed): as the sequence (Q9UM73 1058-1620 G1202R limits assumed) above, with R145G counted along it
Sequence of EML4-ALK-G1202R BaF3 cells (Q9UM73 1058-1620 G1202R limits assumed): as the sequence (Q9UM73 1058-1620 G1202R limits assumed) above

inhibition at 3.3 µM [1] [%]	inhibition at 3.3 µM [2] [%]	IC50 [3] [µM]	tumor growth ([4]; 40 mg/kg (twice/day, bid) orally)	tumor growth ([4]; 60 mg/kg (once/day) orally)	IC50 [6] [µM]	IC50 [7] [µM]	IC50 [8] [µM]	IC50 [9] [µM]	IC50 ([11]; Homo sapiens, NCI-H3122, H3122 tumor cells) [µM]	Compound	body weight during administration ([4]; drug group)	side effects ([4]; drug group)	tumor growth ([5]; 30 mg/kg (once/day) orally)	tumor growth ([5]; 50 mg/kg (once/day) orally)	body weight during administration ([5]; drug group)	side effects ([5]; drug group)	inhibitory activity against Karpas-299 (in words) [9]	IC50 [10] [µM]	inhibitory activity against H3122 (in words) [11]
87.3	96.7	0.01	significantly inhibited tumor growth	significantly inhibited tumor growth	< 0.004	< 0.004	< 0.004	< 0.004	0.015	COc1cc2c(cc1Nc1nc(Nc3ccccc3S(=O)(=O)C(C)C)c3sccc3n1)N(C(=O)CN(C)C)CC2 [IB-1]	no significant changes in body weight	no obvious side effects	significantly inhibited tumor growth	significantly inhibited tumor growth	no significant changes in body weight	no obvious side effects	good inhibitory activity	1.6	good inhibitory activity
–	–	–	–	–	–	–	–	0.061	–	C[C@@H](Oc1cc(-c2cnn(C3CCNCC3)c2)cnc1N)c1c(Cl)ccc(F)c1Cl [Crizotinib, reference compound]	–	–	–	–	–	–	–	–	–
